Source: US8912123B2, “Safened herbicidal compositions including 4-amino-3-chloro-5-fluoro-6-(4-chloro-2-fluoro-3-methoxyphenyl)pyridine-2-carboxylic acid or a derivative thereof and methods for their use” (Dow AgroSciences, LLC., priority 2012, dated 2014)

System: winter barley (Hordeum vulgare, HORVW)
Assay: Post-emergence field trial, visual crop injury (ear deformation) in winter barley
Assay type: in vivo
Settings: for Observed Visual Injury - Ear Deformation (%) 227 DAA HORVW: no safener, 1 L/ha Agnique BL3095, post-emergence field, scale 0-100
Experimental: A post-emergence field trial was conducted under field conditions in Helbigsdorf, Germany. Trial site was located in commercially grown fields of winter barley (Hordeum vulgare, HORVW) using standard herbicide small plot research methodology. Postemergence trial plot was 2.5 meter (m)×5 m (width×length) with 3 replicates per treatment. The crop was grown using normal cultural practices for fertilization, seeding, and maintenance to ensure good growth of the crop and the weeds. Trial treatments included spray formulations containing 4-amino-3-chloro-5-fluoro-6-(4-chloro-2-fluoro-3-methoxy-phenyl)pyridine-2-carboxylic acid (Compound A) at various rates and optionally including cloquintocet mexyl. All treatments in the post-emergence field trials were applied using a bicycle sprayer compressed air/gas sprayer with flat fan nozzles (90°) calibrated to apply 200 L/ha spray volume at approximately 250 kPa nozzle pressure. The spray formulations for Trials 1-4 listed in Table 1 included Dow AgroSciences testing formulation Compound A (listed in acid equivalent per hectare (g ae/ha)), Agnique BL3095 (Cognis, France; listed as liters of product per hectare (L pr/ha)), and optionally cloquintocet mexyl (listed as grams of active ingredient per hectare (g ai/ha)). The spray solutions were mixed in water at the levels indicated in Table 1 to achieve the desired rates based on a unit area of application (hectare). Data for observed visual injury is provided for 227 days after application (DAA) in Table 1. Visual crop injury (ear deformation) was scored on a scale of 0 to 100 percent where 0 corresponds to no injury and 100 correspond to damage at all plants. All treatment results, both for the single product and mixture, are with 4 replicates. The trial sites had naturally occurring populations of weeds. The weed spectrum included loose silky-bent ([…]).

Compound	Observed Visual Injury - Ear Deformation (%) 227 DAA HORVW (Compound A 10 g ae/ha)	Observed Visual Injury - Ear Deformation (%) 227 DAA HORVW (Compound A 20 g ae/ha)	Observed Visual Injury - Ear Deformation (%) 227 DAA HORVW (Compound A 30 g ae/ha)	Safening of the compound of formula I in winter barley (conclusion from Table 1, winter barley)
COc1c(Cl)ccc(-c2nc(C(=O)O)c(Cl)c(N)c2F)c1F [Compound A, 4-amino-3-chloro-5-fluoro-6-(4-chloro-2-fluoro-3-methoxy-phenyl)pyridine-2-carboxylic acid]	27%	30%	30%	–
CCCCCC(C)OC(=O)COc1ccc(Cl)c2cccnc12 (stereo not shown) [cloquintocet-mexyl, reference compound]	–	–	–	safened
